{"source": "patent US6706686B2", "about": "“Inhibition of histone deacetylase as a treatment for cardiac hypertrophy” (The Regents of the University of Colorado, priority 2001, dated 2004)", "key": {"cardiomyocytes [1]": {"system": "cardiomyocytes", "assay": "Immunostaining for ANF protein and α-actinin (sarcomere)", "assay_type": "cell-based, rat", "experimental": "Immunostaining. Glass coverslips were coated with laminin (Invitrogen, Carlsbad, Calif.) by solublizing laminin in 1× PBS (40 μg/ml), by dipping the coverslips in the solution and by allowing them to air-dry. Cells were treated for 24 hrs, washed, fixed 10 min. with 3.7% formaldehyde, washed with 1× PBS and permeabolized with 1× PBS containing 3% BSA and 0.1% NP-40 (Sigma, St. Louis, Mo.). Primary Antibodies were in 1× PBS containing 3% BSA and 0.1% NP-40 for 30 min, then washed three times in 1× PBS. The secondary FITC or TRITC antibodies (Vector Laboratories, Inc., Burlingame, Calif.) were incubated (1:200) in same buffer solution as the primary antibodies, then washed in 1× PBS, covered and subsequently visualized. Images were captured using a digital camera (Hamamatsu Photonics, Hamamatsu City, Japan)."}, "[2]": {"system": "cultured cardiac myocytes", "assay": "Myocyte growth by 14C-phenylalanine radiolabeled protein content", "assay_type": "cell-based, rat", "experimental": "(§1) Cell culture. Ventricular myocytes from one-day-old rats were plated at low density in MEM with 5% calf serum, and studied in serum-free MEM. Cultures were treated with PE (#P6126, Sigma-Aldrich Corp., St. Louis, Mo.), IL-1 (#501-RL, R&D Systems, Minneapolis, Minn.), TSA (#GR-309, BIOMOL Research Laboratories, Inc., Plymouth Meeting, Pa.) or their vehicles (ascorbic acid for PE; bovine serum albumin for IL-1; dimethyl sulfoxide for TSA).\nQuantification of myocyte hypertrophy and myocyte-specific mRNA expression. Growth of cultured myocytes was quantified by content of radiolabeled protein after continuous incubation with ^14C-phenylalanine. For evaluation of the myocyte gene program, total RNA was extracted from cells with TRIZol (GIBCO, Carlsbad, Calif.) and used in RNase protection assay with probes for SERCA, α-/β-MyHC, ANP, BNP, and cardiac α-actin. All samples also included glyceraldehyde phosphate dehydrogenase (GAPDH) as an internal control for RNA loading."}, "[3]": {"system": "CMV-Lac Z reporter in neonatal rat cardiomyocytes", "assay": "CMV-Lac Z reporter (specificity control)", "assay_type": "cell-based", "details": "inhibitor alone or together with phenylephrine", "experimental": "(§2) FIGS. 3A-D. HDAC inhibitors block the activation of ANF reporter by phenylphrine without cytotoxicity. Neonatal rat cardiomyocytes were co-transfected with a total of 1 μg of the mouse 3 kb ANF promoter fragment and CMV-Lac Z plasmids. (FIG. 3A) The ANF promoter is minimally active in unstimulated cardiomyocytes. […] (FIG. 3B) Lac Z expression by the constitutive promoter CMV. Treatment with HDAC inhibitors augmented CMV activity with and without phenylephrine co-treatment. (FIGS. 3C and 3D) The graphs show the measurements of adenylate kinase activity remains constant in the medium after […] of culturing cardiomyocytes in the absence or presence of hypertrophic stimulants FBS, PE or ET-1.\n(§3) Transcription assay. Twenty-four hours after plating, cells were transfected with total of 1 μg/ml for 5 hrs using Lipofectamine Plus reagent (Invitrogen, Carlsbad, Calif.). Transfected cells were incubated 24 hrs then treated for an additional 24 hrs. Cells were lysed and their lysates assayed with the Luciferase Assay System (Promega, Madison, Wis.) for luminescence using Lucysoft 2 luminometer (Rosys Anthos, New Castle, Del.)."}, "[4]": {"system": "ANF promoter in neonatal rat cardiomyocytes", "assay": "ANF promoter transcription (luciferase) assay", "assay_type": "cell-based", "experimental": "as §2\nCardiomyocyte isolation. Hearts were harvested from 15-day timed-pregnant female Sprague-Dawley rats (Harlan, Houston, Tex.). After mincing in phosphate-buffered saline, cardiomyocytes were isolated from successive digestion fractions of 0.1% (w/v) Pancreatin (Sigma, St. Louis, Mo.) solution. Fractions were collected; resuspended in plating medium, pooled; and then plated for 2 hours to separate fibroblasts from cardiomyocyte population. Suspended cells were recollected and plated in 6-well dishes at 1×10^6 cells/well for transfection and immunofluorescence experiments, and 2×10^6 cells in 10 cm dishes for RNA analysis.\nas §3"}, "cardiomyocytes [5]": {"system": "cardiomyocytes", "assay": "Protein synthesis (tritiated leucine, S6 ribosomal protein)", "assay_type": "cell-based, rat", "experimental": "FIG. 6. The effects of TSA treatment on the reorganization of the sarcomeres and protein synthesis. […] The graphs on the right show the content of S6 ribosome protein in cardiomyocytes after 24 hours co-treatment with PE and increasing concentrations of TSA or with serum and increasing concentrations of TSA.\nProtein synthesis. Cardiomyocytes were incubated with (1.0 μCi/ml; 172 Ci/mmol sp. activity) tritiated-leucine (ICN Biochemicals, Inc., Irvine, Calif.) in treated RPMI media (Invitrogen, Carlsbad, Calif.). After 6 hrs incubation, the cells were washed twice with 1× PBS, then incubated in 10% TCA on ice for 30 min. Afterwards, the cells were washed twice with 5% TCA, once with water, and then lysed in […]. Lysates were measured in one-sixth volume of scintillation fluid by a scintillation counter (Beckman, Fullerton, Calif.).\nS6 Ribosomal protocol. After blocking, cells were incubated in 1% BSA/1× PBS containing 50 μg/ml anti-S6 protein (Cell Signaling, […]) for 1 hr. After washing, the cells were incubated with IgG-HRP (Jackson Labs, […]) at a 1:400 dilution. The cells were then washed twice in 1% BSA/1× PBS, in 1× PBS, then blotted dry. Luminol (Pierce, Rockford, Ill.) was added and the chemiluminescence was detected in a Fusion reader (Perkin-Elmer/Packard)."}, "ras transformed cells": {"system": "ras transformed cells", "details": "Taunton et al., 1996; cited from earlier work"}, "[6]": {"system": "acetylated lysine residues / Histone H3 in cardiac myocytes", "assay": "Detection of acetylated lysine residues (Western blot, immunofluorescence)", "assay_type": "cell-based, rat", "details": "exposure for 24 hours", "experimental": "as §1\nDetection of acetylated lysine residues. Total cell extract was subjected to Western blot analysis using antibodies from Cell Signaling Technology (Beverly, Mass.) (acetylated lysine antibody: #9441, acetylated histone H3 antibody at Lysine 9: #9671, acetylated histone H3 antibody at Lysine 23: #9674, histone H3 antibody: #9712). Nuclear localization of acetylated histone H3 was examined by immunostaining using the same antibodies."}}, "note": "“Also recorded” adds a separate entry of the source."}
{"compound": "CC(/C=C/C(=O)NO)=C\\[C@@H](C)C(=O)c1ccc(N(C)C)cc1", "note": "[TSA, Trichostatin A]", "values": [{"measurement": "ANF protein accumulation, inhibitor alone", "setting": "cardiomyocytes [1]; 24 hrs", "result": "lacked accumulation of ANF protein"}, {"measurement": "cell size", "setting": "cardiomyocytes [1]; TSA alone", "result": "did not change size"}, {"measurement": "organization of the sarcomere (α-actinin), inhibitor alone", "setting": "cardiomyocytes [1]; TSA alone", "result": "lacked organization of the sarcomere"}, {"measurement": "organization of the sarcomere with growth stimulants", "setting": "cardiomyocytes [1]; phenylephrine, serum or ET-1", "result": "lacked fully organized sarcomeres"}, {"measurement": "ANF protein accumulation induced by phenylephrine or serum", "setting": "cardiomyocytes [1]; with phenylephrine or serum", "result": "dramatically reduced ANF protein accumulation"}, {"measurement": "myocyte growth", "setting": "[2]; inhibitor by itself", "result": "had no effect on myocyte growth"}, {"measurement": "hypertrophic responses to PE and IL-1 (growth)", "setting": "[2]; with PE or IL-1", "result": "enhanced the individual hypertrophic responses to both PE and IL-1"}, {"measurement": "transcriptional activity of CMV-Lac Z reporter", "setting": "[3]", "result": "increased the transcriptional activity of the CMV-Lac Z reporter"}, {"measurement": "activation of ANF promoter by phenylephrine", "setting": "[4]; phenylephrine 100 μM, TSA 85 nM, NaBut 5 mM, HC-toxin 5 ng/ml", "result": "did block the promoter's activation by phenylephrine treatment completely; also recorded: prevented the activation of the ANF promoter"}, {"measurement": "ANF promoter activity, inhibitor alone", "setting": "[4]; unstimulated cardiomyocytes", "result": "did not activate the ANF promoter"}, {"measurement": "phenylephrine-stimulated protein synthesis, 6 hours", "setting": "cardiomyocytes [5]; 6 hours co-culture with phenylephrine", "result": "had little effect on the stimulation of protein synthesis; also recorded: does not alter this increase"}, {"measurement": "protein synthesis induced by PE or serum, 24 hrs", "setting": "cardiomyocytes [5]; 24 hrs co-treatment", "result": "antagonized the protein synthesis normally induced by PE or serum in a dose-dependent manner"}, {"measurement": "acetylation", "setting": "ras transformed cells", "result": "induce hyperacetylation"}, {"measurement": "morphology of ras transformed cells", "setting": "ras transformed cells", "result": "cause reversion of ras transformed cells to normal morphology"}, {"measurement": "protein acetylation (acetylated lysine residues, Histone H3)", "setting": "[6]", "result": "effectively increased acetylated lysine residues"}]}
